Experimental findings from ChEMBL document CHEMBL4024763, “Discovery and Optimization of Pyrrolopyrimidine Inhibitors of Interleukin-1 Receptor Associated Kinase 4 (IRAK4) for the Treatment of Mutant MYD88L265P Diffuse Large B-Cell Lymphoma” (J Med Chem, 2017) are described below.

A word on the solubility: it is the dissolved amount per volume that the medium holds. By logD is commonly meant the decadic logarithm of the distribution of all forms, ionised or not, between an organic phase and buffer at a given pH.

Structures are written as SMILES. ≈ marks a conversion by molar mass, not a printed value.

The first series can be described thus: Aqueous solubility of the compound at pH 7.4 at 25 degC. The class given is physicochemical. The settings on record: buffer.
Compound `c1nc(S[C@H]2CC[C@H](N3CCOCC3)CC2)c2c(C3CCOCC3)c[nH]c2n1` returned a solubility of 5 µM (≈ 2.01 µg/mL).

The next series in a line: Lipophilicity, log D of the compound at pH 7.4 by shake flask method. The settings on record: buffer. The class given is physicochemical.
`CN(C)[C@H]1CC[C@H](Nc2ncnc3[nH]cc(C4CCCO4)c23)CC1` (stereo in doubt; 18b) displayed a logD of 0.3.

The same series, now with this note: buffer, read-out: logD.
With `CN(C)[C@H]1CC[C@H](Nc2ncnc3[nH]cc(C4CCCO4)c23)CC1` (stereo in doubt; 18a), the logD was 0.4.

As to `CN(C)[C@H]1CC[C@H](Nc2ncnc3[nH]c4c(c23)CCC4)CC1`, the logD was 0.5.

`CN(C)[C@H]1CC[C@H](Nc2ncnc3sccc23)CC1`: the pH-dependent lipophilicity (logD) was 0.1.

On to `CN(C)[C@H]1CC[C@H](N(C)c2ncnc3[nH]cc(C4CCOCC4)c23)CC1`, for which the logD turned out to be 0.6.

For the compound `c1nc(O[C@H]2CC[C@H](N3CCOCC3)CC2)c2c(C3CCOCC3)c[nH]c2n1`, the logD stood at 2.4.

As to `CN(C)[C@H]1CC[C@H](Nc2ncnc3sc4c(c23)CCC4)CC1`, the log distribution coefficient (logD) turned out to be 1.2.

Turning to `CCc1c[nH]c2ncnc(N[C@H]3CC[C@H](N(C)C)CC3)c12`, the pH-dependent lipophilicity (logD) stood at 0.6.

As for `CN(C)[C@H]1CC[C@H](Nc2ncnc3[nH]cc(C4CCC4)c23)CC1`, the logD was found to be 1.5.

As for `CN(C)[C@H]1CC[C@H](Nc2ncnc3[nH]ccc23)CC1`, the logD was -0.6.

Take `CN(C)[C@H]1CC[C@H](Nc2ncnc3[nH]cc(C(F)(F)F)c23)CC1`: the logD came to 1.5.

In the case of `N#Cc1cnc2[nH]cc(C3CCOCC3)c2c1N[C@H]1CC[C@H](N2CCOCC2)CC1`, the log distribution coefficient (logD) amounted to 2.3.

Take `CN(C)[C@H]1CC[C@H](Nc2ncnc3[nH]cc(C4CCCC4)c23)CC1`: the log distribution coefficient (logD) was determined as 1.7.

For `Cc1cc2c(N[C@H]3CC[C@H](N(C)C)CC3)ncnc2[nH]1`, the logD is -0.2.

For `CN(C)[C@H]1CC[C@H](Nc2ncnc3[nH]cc(C4CC4)c23)CC1`, the logD is 0.9.

With `Cc1csc2ncnc(N[C@H]3CC[C@H](N(C)C)CC3)c12`, the log distribution coefficient (logD) was determined as 0.3.

Turning to `c1cc(N[C@H]2CC[C@H](N3CCOCC3)CC2)c2c(C3CCOCC3)c[nH]c2n1`, the logD was determined as 1.7.

In the case of `Cc1sc2ncnc(N[C@H]3CC[C@H](N(C)C)CC3)c2c1C`, the pH-dependent lipophilicity (logD) amounted to 0.7.

With `CN(C)[C@H]1CC[C@H](Nc2ncnc3[nH]cc(C4CCOC4)c23)CC1` (stereo in doubt; 19a), the logD was found to be 0.1.

Turning to `CN(C)[C@H]1CC[C@H](Oc2ncnc3[nH]cc(C4CCOCC4)c23)CC1`, the pH-dependent lipophilicity (logD) was determined as 1.2.

As to `c1nc(S[C@H]2CC[C@H](N3CCOCC3)CC2)c2c(C3CCOCC3)c[nH]c2n1`, the logD came out at 3.

In the case of `CN(C)[C@H]1CC[C@H](Nc2ncnc3[nH]cc(C4CCCOC4)c23)CC1` (some centres not stated), the pH-dependent lipophilicity (logD) was determined as 0.3.

For the compound `Cc1cc2c(N[C@H]3CC[C@H](N(C)C)CC3)ncnc2s1`, the logD was found to be 0.6.

`Cc1[nH]c2ncnc(N[C@H]3CC[C@H](N(C)C)CC3)c2c1C`: the logD came to 0.6.

The nature of a further series: Drug excretion in bile duct cannulated rat bile at 2 mg/kg, iv. The class given is ADME, organism-based. The settings on record: read-out: Drug excretion.
As for `c1nc(N[C@H]2CC[C@H](N3CCOCC3)CC2)c2c(C3CCOCC3)c[nH]c2n1`, the dose excreted stood at 2%.

A further series is described as follows: Drug excretion in bile duct cannulated rat urine at 2 mg/kg, iv. In kind it is ADME, organism-based. The following applies: read-out: Drug excretion.
As to `c1nc(N[C@H]2CC[C@H](N3CCOCC3)CC2)c2c(C3CCOCC3)c[nH]c2n1`, the dose excreted came out at 27%.
